For experiment [1], the system named is SLC16A11. Nature of the experiment: Compound treatment, SLC16A11 expression by ddPCR in SNU761 cells. In kind it is cell-based, human. To be noted: SNU761 cells. The essentials:
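SNU761 hepatocellular carcinoma cells, plated 24 h, treated with compounds at 10 μM final or vehicle, with treatment times matching the LINCS dataset. SLC16A11 mRNA quantified by TaqMan droplet digital PCR, normalized to TBP or HPRT1.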

In experiment [2] the test system is SLC16A11. Nature of the experiment: Compound treatment, SLC16A11 expression by ddPCR in NCIH716 cells. In kind it is cell-based, human. To be noted: same concentrations and treatment times as LINCS. The protocol:
A small number of the compounds that made the strongest positive connections to the SLC16A11 gene expression signature were selected and tested. […] Methotrexate was also included, which had been annotated as a dihydrofolate reductase inhibitor. SNU761 cells (derived from a human hepatocellular carcinoma) and NCIH716 cells (derived from a human cecum adenocarcinoma), which both express SLC16A11, were treated with the compounds. The same compound concentrations and treatment times were used as in the LINCS dataset experiments. […] For normalization, a different housekeeper gene, HPRT1, was used and obtained similar results with the mTOR inhibitors (FIGS. 14A and 14B).
SNU761 (human hepatocellular carcinoma) and NCIH716 (human cecum adenocarcinoma) were cultured in RPMI Medium 1640 supplemented with 10% Fetal Bovine Serum (FBS), 100 μg/ml Streptomycin and 100 U/ml Penicillin. Cells were grown in a humidified CO2 incubator, at 37° C.
For the unbiased approach taken to investigate the compounds that connected to the SLC16A11 gene expression signature, compounds were obtained from compound management at the Broad Institute.
SNU761 and NCIH716 cells were plated into 96 well plates at a density of 20,000 cells per well. Hepatocytes were plated into collagen coated 96 well plates (Corning, 354408) at a density of 50,000 cells per well. After 24 hours, cells were treated with compounds at a final concentration of 10 μM or vehicle control for the appropriate amount of time.
At the time of collection, cells in 96 well plates were lysed by directly adding 50 μL of RLT buffer (Qiagen). […]
(§1) RNA was DNase treated and converted into cDNA using the High-Capacity RNA-to-cDNA kit (Thermo Fisher Scientific). The following FAM-labeled TaqMan Real-Time PCR assays (Thermo Fisher Scientific) were used to quantify gene expression: SLC16A11 (Hs00601062_g1), SLC16A13 (Hs00416832_m1), SLC16A1 (Hs01560299_m1). […] Droplets were generated and analyzed using a QX200 Droplet Generator and Reader system (BioRad). Data was extracted using QuantaSoft (BioRad) and analyzed using Microsoft Excel.

Experiment [3] relates to SLC16A1. Nature of the experiment: Compound treatment, SLC16A1 expression by ddPCR in SNU761 cells. In kind it is cell-based, human. To be noted: 10 μM for 24 hours. The protocol: (§2) FIGS. 14A-14D provide graphs showing that mTOR inhibitors increase SLC16A11, but not SLC16A1 transcript levels. […] SLC16A11 (FIGS. 14A and 14B) and SLC16A1 (FIGS. 14C and 14D) expression was then assessed using droplet digital PCR (ddPCR). Bar plots depict relative fold-changes with respect to DMSO and error bars and standard deviations. Expression is normalized to housekeeping genes TBP or HPRT1.
(§3) A small number of the compounds that made the strongest positive connections to the SLC16A11 gene expression signature were selected and tested. […] Methotrexate was also included, which had been annotated as a dihydrofolate reductase inhibitor. SNU761 cells (derived from a human hepatocellular carcinoma) and NCIH716 cells (derived from a human cecum adenocarcinoma), which both express SLC16A11, were treated with the compounds. […]
as §1

Experiment [4] relates to SLC16A1. Nature of the experiment: Compound treatment, SLC16A1 expression by ddPCR in NCIH716 cells. It counts as cell-based, human. To be noted: 10 μM for 24 hours. The protocol:
as §2, §3, §1

Experiment [5] deals with SLC16A11. Nature of the experiment: Compound treatment, SLC16A11 expression by ddPCR in primary human hepatocytes. It counts as cell-based. To be noted: vs DMSO. The protocol: (§4) SLC16A11 (denoted by A11 when normalized by TBP and A11* for HPRT1), SLC16A13 (A13), and SLC16A1 (A1) in comparison with DMSO treated cells.
(§5) Primary human hepatocytes were purchased from Bioreclamation IVT. Hepatocyte lot used was BHL. Cells were thawed and immediately resuspended in CP media (Bioreclamation IVT) supplemented with torpedo antibiotic (Bioreclamation IVT). Cell concentration and viability were assessed prior to use. Cells were grown in a humidified CO2 incubator, at 37° C.
(§6) SNU761 and NCIH716 cells were plated into 96 well plates at a density of 20,000 cells per well. Hepatocytes were plated into collagen coated 96 well plates (Corning, 354408) at a density of 50,000 cells per well. After 24 hours, cells were treated with compounds at a final concentration of 10 μM or vehicle control for the appropriate amount of time. […]
as §1

The test system of the next experiment is SLC16A13. The experiment is described as follows: Compound treatment, SLC16A13 expression by ddPCR in primary human hepatocytes. In kind it is cell-based. To be noted: vs DMSO. The protocol: as §4, §5, §6, §1
Experiment [6] relates to SLC16A1. Nature of the experiment: Compound treatment, SLC16A1 expression by ddPCR in primary human hepatocytes. In kind it is cell-based. To be noted: vs DMSO. The protocol: as §4, §5, §6, §1
The next experiment relates to SLC16A11 (A11). The experiment is described as follows: ddPCR based screening assay for modulators of SLC16A11 expression (Z′). In kind it is cell-based, human. To be noted: SNU 761 cells; compound as positive control. The source says: As detailed herein above, SLC16A11 (A11) belongs to a family of monocarboxylate transporters. Expression of A11 was studied in SNU 761 cell lines. These liver cancer cells are ideal for studying SLC16A11 expression because A11 is expressed in higher quantity in liver cells, although expression of the gene in all tissues is extremely low. The 5 SNP risk haplotype causes lowered expression and interferes with protein-protein interactions between A11 and a cofactor protein, indicating loss of function. Therefore, increasing A11 expression in individuals with the risk haplotype is likely beneficial.
The quality of an assay can be quantified by Z′, a measure of how well the assay can differentiate between the positive and negative controls. Using the formula: […]
First the cells were treated with inhibitor compounds, their RNA was extracted, and that RNA was used as a template to create DNA. Then, the DNA was quantified using droplet digital PCR (ddPCR), analyzed and quantified using QuantaSoft™ (BioRad). […]
From the QuantaSoft scoring of each droplet, the means and standard deviations of SLC16A11 expression levels was determined in response to compound treatment. […] Points in light gray had the gene of interest and were scored as positive (FIG. 17C). SLC16A11 was scored in the graph. […]

In a further experiment the test system is panel of 260 kinases. To be noted: concentrations up to 10 μmol/L, cited from earlier work.

Like-named read-outs stand apart in the source and are kept apart here.

In the case of `COc1ccc(-c2ccc3c(N4CCOC[C@@H]4C)nc(N4CCOC[C@@H]4C)nc3n2)cc1CO` [AZD-8055, [5-[2,4-Bis((3S)-3-methylmorpholin-4-yl)pyrido[2,3-d]pyrimidin-7-yl]-2-methoxyphenyl]methanol], the “SLC16A11 (A11) transcript levels, dose response curve” value with SLC16A11 [1] (FIG. 16 top panel) was “increase”. Further, the “SLC16A11 transcript levels, compound treated compared to DMSO treated cells” value in the experiment on SLC16A11 [1] (same concentrations and treatment times as LINCS, ddPCR) is on record as “about 3 fold”; in the experiment with SLC16A11 [2], “about 3 fold”. In the experiment on SLC16A11 [1] (same doses and treatment times as in the LINCS dataset), the “avg_fc (SLC16A11 expression, compound treated vs DMSO treated cells)” value is listed as 4.253. In the experiment on SLC16A11 [1] (unbiased test of 59 top and 20 middle LINCS compounds, LINCS doses and times), the “increase in SLC16A11 expression, compound treated compared to DMSO treated cells” value is on record as around 4 fold. Moreover, the “SLC16A1 expression with respect to DMSO” value in the experiment on SLC16A1 [3] and in the experiment with SLC16A1 [4] was “slight decrease” in each case. The SLC16A11 expression entry in the experiment with SLC16A11 [5] is recorded as “increase SLC16A11 expression”. In addition, the SLC16A13 expression result in the experiment on SLC16A13 was “decreased”. For the same compound, in the experiment on SLC16A1 [6], the SLC16A1 expression entry is given as “decreased”. The “A11 expression in manual ddPCR assay” value with SLC16A11 (A11) is “increased”. In addition, the “activity against a panel of 260 kinases” value with panel of 260 kinases was “not show significant activity”; in the experiment on panel of 260 kinases (listed as AZD8055) it was “no significant activity”.

These data come from US11471462B2, “Compositions and methods for detecting and treating diabetes” (THE BROAD INSTITUTE, INC., priority 2016, dated 2022).
